Test system: T1, rHrGSTm1
T1 construct: gene HrGSTm1; full-length CDS (672-bp ORF); 223 aa in abstract, 233; recombinant 44 kDa, no tag removal described
Assay: GSH conjugation, absorbance at […] nm, Michaelis-Menten fit
Format: biochemical, Hyalomma rufipes
Conditions: 5 mM GSH; CDNB varied 0.125-2 mM (printed unit μM lies far below this range, possibly meant mM); abstract calls glutathione the substrate

`O=[N+]([O-])c1ccc(Cl)c([N+](=O)[O-])c1` [CDNB, 1-Chlom-2,4-Dinitrobenzene] showed a Km of 2.21 ± 0.76 µM.
